Assay results from patent US10350199B2, “3-(1h-pyrrolo[2,3-b]pyridin-2-yl)-1h-indazoles and therapeutic uses thereof” (Samumed, LLC, priority 2015, dated 2019).

Columns and labels:
Assay type in all cases: cell-based
[1] = system: primary human fibroblasts derived from IPF patients (LL29 cells) treated with TGF-β1; assay: Inhibition of the fibrotic process: αSMA staining in TGF-β1 treated LL29 fibroblasts; conditions: Fibroblast; for EC50: 96 h, LL29 cells, TGF-β1 20 ng/mL, 4 days, % αSMA positive cells; for inhibition at 10 µM: read-out: percent inhibition at 10 μM
Outline: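 Read-out after 4-day incubation: αSMA staining with 1 μM SYTOX green nuclear counterstain (30 min, room temperature). Cells were LL29 primary fibroblasts from IPF patients, in 1% FBS F12, exposed to TGF-β1 with test compound, referenced to TGF-β1/DMSO control wells.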

[2] = system: IL-6 (THP-1 human monocyte cell line); assay: IL-6 inhibition in LPS-stimulated THP-1 cells (HTRF); conditions: for EC50: IL-6 inhibition, LPS-stimulated THP-1 cells, HTRF; for inhibition at 10 µM: THP-1, read-out: percentage in parentheses beside EC50 >10 (IL-6 inhibition)
Outline: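 After 24 h in 1% FBS medium, cells had compound 2 h before 500 ng/mL LPS, then 22 h more at 37 °C. DMSO-normalized HTRF signal (665/620 nm ratio, anti-IL-6 antibody pair) was fitted with a variable-slope four-parameter model to give EC50.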

[3] = system: Wnt activity (Sp5-Luc reporter, SW480 colon carcinoma cells); assay: Wnt activity screening assay, Sp5-Luc reporter gene in SW480 cells; conditions: Homo sapiens; for inhibition at 10 µM: SW480, read-out: percent inhibition at 10 μM; for EC50: Sp5-Luc reporter, SW480 cells, overnight incubation
Outline: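 Read-out is BrightGlo luminescence, normalized to DMSO-treated cells and fitted by four-parameter variable-slope regression for EC50. Reporter cells: SW480 colon carcinoma carrying a stable lentiviral Sp5-Luc construct with eight TCF/LEF sites, seeded 4,000/well in 1% FBS, incubated overnight at 37° C.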

[4] = system: primary human mesenchymal stem cells (hMSCs); assay: Induction of chondrogenesis in human mesenchymal stem cells (nodule area, Rhodamine B/Nile Red); conditions: hMSC chondrogenesis; for Emax: relative to TGF-β3 (10 ng/mL) positive control, read-out: Max. Activity as % TGF-β3 activity; for EC50: concentration required to induce 50% levels of chondrogenesis of TGF-β3 positive control, read-out: Conc (nM) of 50% TGF-β3 activity
Description: Representative compounds were screened using primary human mesenchymal stem cells (hMSCs) to determine their ability to induce chondrogenesis (process by which cartilage is developed).
Primary human mesenchymal stem cells (hMSCs) were purchased from Lonza (Walkersville, Md.) and expanded in Mesenchymal Stem Cell Growth Media (Lonza). Cells between passage 3 and 6 were used for the experiments.
Area of nodules in each well was normalized to the average of 3 DMSO treated wells on the same plate using Excel (Microsoft Inc.). The normalized averages (fold change over DMSO) of 2 or 3 replicate wells for each compound concentration were calculated. Due to solubility limitations of some of the compounds, curve fitting was incomplete leading to inaccurate EC50 determinations.
Using TGF-β3 as a positive control, the concentration of representative compounds required to induce 50% levels of chondrogenesis is reported. In addition, the maximum activity of each compound and the respective dose that each compound reached maximum chondrogenesis activity is reported.

SW480 colon cancer cells = assay: Cell viability assay (CellTiter-Blue), SW480 cells, four days; conditions: Homo sapiens; for EC50: 96 h, SW480 cell viability, four days, CellTiter-Blue; for inhibition at 10 µM: SW480, read-out: percent inhibition at 10 μM
Outline: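 Fluorescence from resazurin reduced to resorufin by metabolically active cells was the read-out, taken after ~3 h with CellTiter-Blue.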

SMILES	EC50 [1] [µM]	inhibition at 10 µM [1] [%]	EC50 [2] [µM]	inhibition at 10 µM [2] [%]	inhibition at 10 µM [3] [%]	EC50 [3] [µM]	Emax [4] [%]	EC50 (SW480 colon cancer cells) [µM]	inhibition at 10 µM (SW480 colon cancer cells) [%]	EC50 [4] [nM]
O=C(Nc1cncc(-c2ccc3[nH]nc(-c4cc5c(-c6cccnc6)ccnc5[nH]4)c3c2)c1)C1CCCCC1 [Compound 107, N-(5-(3-(4-(Pyridin-3-yl)-1H-pyrrolo[2,3-b]pyridin-2-yl)-1H-indazol-5-yl)pyridin-3-yl)cyclohexanecarboxamide]	> 10	41.7	> 10	34.4	10.6	> 10	39	> 10	12	–
CN1CCN(c2ccnc3[nH]c(-c4n[nH]c5ccc(-c6cncc(N)c6)cc45)cc23)CC1 [Compound 227, 5-(3-(4-(4-Methylpiperazin-1-yl)-1H-pyrrolo[2,3-b]pyridin-2-yl)-1H-indazol-5-yl)pyridin-3-amine]	> 10	51.2	7.34	–	–	1.17	50	> 10	42.3	100
c1cncc(-c2ccc3[nH]nc(-c4cc5c(-c6cccnc6)ccnc5[nH]4)c3c2)c1 [Compound 88, 5-(Pyridin-3-yl)-3-(4-(pyridin-3-yl)-1H-pyrrolo[2,3-b]pyridin-2-yl)-1H-indazole]	> 10	0	0.648	–	48.8	> 10	17	> 10	11.2	–
c1cncc(-c2ccnc3[nH]c(-c4n[nH]c5ccc(-c6cncc(CN7CCCCC7)c6)cc45)cc23)c1 [Compound 99, 5-(5-(Piperidin-1-ylmethyl)pyridin-3-yl)-3-(4-(pyridin-3-yl)-1H-pyrrolo[2,3-b]pyridin-2-yl)-1H-indazole]	> 10	4	> 10	0	18.6	> 10	62	> 10	50.6	30
Cc1ccncc1-c1ccc2[nH]nc(-c3cc4c(-c5ccncc5)ccnc4[nH]3)c2c1 [Compound 117, 5-(4-Methylpyridin-3-yl)-3-(4-(pyridin-4-yl)-1H-pyrrolo[2,3-b]pyridin-2-yl)-1H-indazole]	> 10	44.2	> 10	31.5	31.8	> 10	44	> 10	4.6	–
Nc1cncc(-c2ccc3[nH]nc(-c4cc5c(-c6ccccn6)ccnc5[nH]4)c3c2)c1 [Compound 143, 5-(3-(4-(Pyridin-2-yl)-1H-pyrrolo[2,3-b]pyridin-2-yl)-1H-indazol-5-yl) pyridin-3-amine]	0.045	–	0.083	–	–	0.022	46	0.089	–	–
CC(C)(C)CC(=O)Nc1cncc(-c2ccc3[nH]nc(-c4cc5c(-c6ccoc6)ccnc5[nH]4)c3c2)c1 [Compound 324, N-(5-(3-(4-(Furan-3-yl)-1H-pyrrolo[2,3-b]pyridin-2-yl)-1H-indazol-5-yl)pyridin-3-yl)-3,3-dimethylbutanamide]	> 10	0	0.694	–	–	0.89	21	9.2	–	–
Cc1ccncc1-c1ccc2[nH]nc(-c3cc4c(-c5ccoc5)ccnc4[nH]3)c2c1 [Compound 313, 3-(4-(Furan-3-yl)-1H-pyrrolo[2,3-b]pyridin-2-yl)-5-(4-methylpyridin-3-yl)-1H-indazole]	> 10	36.3	1.01	–	–	4.29	67	> 10	0	100
CCCCC(=O)Nc1cncc(-c2ccc3[nH]nc(-c4cc5cccnc5[nH]4)c3c2)c1 [Compound 271, N-(5-(3-(1H-Pyrrolo[2,3-b]pyridin-2-yl)-1H-indazol-5-yl)pyridin-3-yl) pentanamide]	0.712	–	0.023	–	–	0.324	34	1.06	–	–
O=C(Nc1cncc(-c2ccc3[nH]nc(-c4cc5c(-c6ccncc6)ccnc5[nH]4)c3c2)c1)c1ccccc1 [Compound 123, N-(5-(3-(4-(Pyridin-4-yl)-1H-pyrrolo[2,3-b]pyridin-2-yl)-1H-indazol-5-yl)pyridin-3-yl)benzamide]	> 10	49.2	> 10	20.6	17.3	> 10	19	> 10	7.2	–
CC(C)Nc1cncc(-c2ccc3[nH]nc(-c4cc5c(-c6cccnc6)ccnc5[nH]4)c3c2)c1 [Compound 96, N-Isopropyl-5-(3-(4-(pyridin-3-yl)-1H-pyrrolo[2,3-b]pyridin-2-yl)-1H-indazol-5-yl)pyridin-3-amine]	> 10	10	0.409	–	38.9	> 10	45	> 10	28.2	–
CN(C)Cc1cncc(-c2ccc3[nH]nc(-c4cc5c(-c6ccncc6)ccnc5[nH]4)c3c2)c1 [Compound 125, N,N-Dimethyl-1-(5-(3-(4-(pyridin-4-yl)-1H-pyrrolo[2,3-b]pyridin-2-yl)-1H-indazol-5-yl)pyridin-3-yl)methanamine]	> 10	0	> 10	49.7	29.7	> 10	37	> 10	7.4	–
CN(C)Cc1cncc(-c2cc(F)c3[nH]nc(-c4cc5c(-c6cccc(F)c6)ccnc5[nH]4)c3c2)c1 [Compound 992, 1-(5-(7-Fluoro-3-(4-(3-fluorophenyl)-1H-pyrrolo[2,3-b]pyridin-2-yl)-1H-indazol-5-yl)pyridin-3-yl)-N,N-dimethylmethanamine]	> 10	5.2	> 10	34.2	17	> 10	35	> 10	3.6	–
c1cncc(-c2ccc3[nH]nc(-c4cc5c(N6CCCCC6)ccnc5[nH]4)c3c2)c1 [Compound 172, 3-(4-(Piperidin-1-yl)-1H-pyrrolo[2,3-b]pyridin-2-yl)-5-(pyridin-3-yl)-1H-indazole]	> 10	25.1	> 10	31.8	48.2	> 10	162	> 10	8.9	2700
CCNCc1cncc(-c2ccc3[nH]nc(-c4cc5c(-c6cccc(F)c6)ccnc5[nH]4)c3c2)c1 [Compound 6, N-((5-(3-(4-(3-Fluorophenyl)-1H-pyrrolo[2,3-b]pyridin-2-yl)-1H-indazol-5-yl)pyridin-3-yl)methyl)ethanamine]	1.2	–	3.97	–	–	1.68	59	0.561	–	30
c1cncc(-c2ccc3[nH]nc(-c4cc5c(-c6ccsc6)ccnc5[nH]4)c3c2)c1 [Compound 284, 5-(Pyridin-3-yl)-3-(4-(thiophen-3-yl)-1H-pyrrolo[2,3-b]pyridin-2-yl)-1H-indazole]	2.2	–	0.347	–	38	> 10	39	0.352	–	–
O=C(Nc1cncc(-c2ccc3[nH]nc(-c4cc5c(-c6ccc(F)cc6)ccnc5[nH]4)c3c2)c1)C1CCC1 [Compound 49, N-(5-(3-(4-(4-Fluorophenyl)-1H-pyrrolo[2,3-b]pyridin-2-yl)-1H-indazol-5-yl)pyridin-3-yl)cyclobutanecarboxamide]	> 10	3.2	> 10	29.6	10.6	> 10	–	> 10	11.8	–
